Measured values as given in patent US20240189263A1, “DERIVATIZED C60 MOLECULES AND METHODS AND MATERIALS FOR USING DERIVATIZED C60 MOLECULES TO REDUCE RADIATION INJURY” (Mayo Foundation for Medical Education and Research, priority 2021, published 2024).

Tests used:
HUVEC cells [1] = assay: DNA damage, γH2AX foci immunofluorescence, HUVEC; type: cell-based
Method: To test the ability of C60-ser to protect against radiation injury, the level of DNA damage in response to radiation was analyzed by measuring γH2AX. The H2AX protein becomes phosphorylated into γH2AX as a result of DNA double strand breaks. This allows for the visualization and quantification of double strand break foci through immunofluorescence analysis. Cells were plated on 8 chamber slides and incubated overnight before C60-ser treatment. Three sets of slides per cell line (to be irradiated with 0, 0.5, and 1 Gy) were prepared, with the top 4 rows used as a control and the bottom 4 rows incubated with 100 μM C60-ser. Cells were incubated with C60-ser for 2 hours before irradiation with a clinical Proteus One proton machine (Ion Beam Applications, Louvain-la-Neuve, Belgium). A 230 MeV mono-energetic unmodulated broad beam of large field size that encompassed all slides containing the cells was used to deliver the 0.5 and 1 Gy doses. White solid water slabs (IBA Dosimetry, Germany) provided the necessary phantom material to place the cells at the desired 8 cm depth with an LET of approximately 1.7 keV/μm. After irradiation, cells were incubated at 37° C. with 5% CO2 for 30 minutes before washing and fixing the cells with 1% formaldehyde. The cells were permeabilized with 1% NP-40 and incubated with 5% BSA to block unspecific antibody bonding. The cells were then incubated with γH2AX primary antibody followed by a secondary antibody. Mounting media containing DAPI was used before applying cover slips and sealing the samples. Cells were imaged on an Olympus IX71 trinocular inverted fluorescence phase contrast microscope with a 40× objective. The resulting images were analyzed by ImageJ, and the foci were counted.

[2] = system: HCT116 colorectal cancer cells; assay: Clonogenic assay of irradiated HCT116 colorectal cancer cells; type: cell-based; settings: HCT116, 100 μM 2 hours, 0-6 Gy
Method: A clonogenic assay of HCT116 colorectal cancer cells was conducted. 2×10^6 cells were treated with 100 μM C60-ser for 2 hours and exposed to 0-6 Gy of radiation.

C57B16 mice = assay: Whole body radiation protection, survival; type: in vivo
NIH3T3 cells = assay: Seahorse mitochondrial respiration (oxygen consumption rate), NIH3T3; type: cell-based; settings: NIH3T3, pretreated 2 hours before 1 Gy 230 MeV proton
Method: The oxygen consumption rates were assessed in N2A, HUVEC, NIH3T3, and HepG2 cell lines with a Seahorse XFe96 (Agilent Technologies, Santa Clara, CA, USA). Cells were treated with 0 and 1 Gy of 230 MeV proton irradiation. The control plates were run at about the same time post plating. Each cell line was optimized prior to these experiments, and data was presented normalized to cell number plated. The standard mitochondrial stress test was performed using serial injections of oligomycin (1.5 μM), carbonyl cyanide p-(trifluoromethoxy)phenylhydrazone (FCCP, 1 μM), and rotenone/antimycin A mixture (0.5 μM). After injection of oligomycin, which inhibits ATP synthase (complex V), there was a drop in electron flow through the electron transport chain (ETC) and a resultant drop in oxygen consumption rate (OCR) of the cells. Injection of FCCP collapsed the proton gradient and allowed for uninhibited electron flow through the ETC supercomplexes. […] The reserve respiratory capacity was calculated by subtracting the basal respiratory capacity from the maximal respiratory capacity.

N2A cells = assay: Classic clonogenics survival assay of irradiated cells, N2A; type: cell-based
Method: A classic clonogenics assay was performed to further test the ability of C60-ser to protect against radiation damage. After irradiation, a fraction of the cells will undergo radiation-induced death, whereas other cells remain metabolically active and are able to undergo a few cycles of mitosis before meeting their endpoint. Since many cells remain metabolically activity, classic toxicity measurements such as an MTT measurement are not able to catch the full effects of radiation damage. In contrast, a classic clonogenics assay, which plates a known number of cells and tracks development of colonies, is able to track the number of cells that maintain their clonogenicity. With increasing radiation doses, the fraction of cells that maintain clonogenicity decrease. Therefore, a successful radioprotectant is able to increase the number of surviving colonies compared to the control at the same radiation doses.
N2A, NIH3T3, and HepG2 cells were plated in 35 mm dishes and treated with 100 μM C60-ser for 2 hours prior to washing with PBS and irradiation at 0, 2, 4, and 6 Gy with a 230 MeV proton beam. Following radiation, a known number of cells were re-plated in six well plates and allowed to grow in culture for 8-14 days to allow for colony formation. To account for cell death with higher radiation doses, a larger number of cells were plated with increasing doses received. […]

HUVEC cells [3] = assay: MTS cytotoxicity assay, HUVEC; type: cell-based; settings: 1-1000 μM, 24, 48 or 72 hours
Method: Cytotoxicity of C60-ser was determined by an MTS (3-(4,5-dimethylthiazol-2-yl)-5-(3-carboxymethoxyphenyl)-2-(4-sulfophenyl)-2H-tetrazolim) colorimetric assay on four different cell lines, each representing a different cell type. Specifically, HepG2 (liver epithelium), HUVEC (endothelial cells), N2A (neuroblastoma cells representative of normal neurons), and NIH3T3 (fibroblasts) were analyzed. The cells were seed in a 96-well tissue culture polystyrene plate at different seeding concentrations based on the cell's doubling time. HUVEC cells were seeded at 10,000 cells/well (24 hour experiments), 8,000 cells/well (48 hour experiments), and 5,000 cells/well (72 hour experiments), and incubated for 24 hours in a humidified atmosphere with 5% C02 at 37° C. […] After incubation with MTS, the optical density (OD) of the resulting formazan solution was read at 490 nm using a microplate reader (Biotek Cytation 5 cell Imaging Multi-Mode reader, Winooski, VT). The cell viability was obtained by normalizing the absorbance of the sample with that of the control wells containing untreated cells. The cell viability was expressed as a percentage, assigning the viability of non-treated cells as 100%. […]

With O=C(NC(CO)CO)C1(C(=O)NC(CO)CO)C23c4c5c6c7c8c4-c4c2c2c9c%10c4C4%11c%12c-%10c%10c%13c%14c%12-c%12c(c-7c7c%15c%12C%14%12C(C(=O)NC(CO)CO)(C(=O)NC(CO)CO)C%12%14c%12c%16c%17c%18c(c%12-%15)C7%12C(C(=O)NC(CO)CO)(C(=O)NC(CO)CO)C6%12c6c-5c5c7c(c6-%18)C%176C(C(=O)NC(CO)CO)(C(=O)NC(CO)CO)C6%12c6c-7c(c-2c2c6-c6c%12c-%16c%14c-%13c6C%106C(C(=O)NC(CO)CO)(C(=O)NC(CO)CO)C926)C513)C84C%11(C(=O)NC(CO)CO)C(=O)NC(CO)CO (centres unmarked) [C60-ser, C60-serinol] the “γH2AX foci vs control” value (HUVEC cells [1]; 100 μM 2 hours before 0.5 Gy proton radiation) was “trend towards reduction in total foci formed, but it was not statistically significant”, the “γH2AX foci vs control” value (HUVEC cells [1]; 100 μM 2 hours before 1 Gy proton radiation) was “significant decrease in the number of foci” and the “γH2AX foci vs control” value (HUVEC cells [1]; 100 μM 2 hours, absence of radiation) was “no significant different in foci expression”. For the same compound, the “surviving fraction of cells vs control” value [2] was “no difference in the surviving fraction of cells”, the “protection from whole body x-ray radiation-induced death” value (C57B16 mice; given systemically 12 hours after radiation) was “protected mice from whole body x-ray radiation-induced death” and the “survival over 45 day study” value (C57B16 mice; per os 700 mg/kg 12 hours before 9.5 Gy whole-body x-ray, then 70 mg/kg daily for eight days) was 100%. For the same compound, the “survival over 45 day study” value (C57B16 mice; per os 700 mg/kg once 12 hours before 9.5 Gy whole-body x-ray) was 100%, the “radiation-induced increase in respiratory capacity” value (NIH3T3 cells) was “dampened and, in some cases, reduced to normal or slightly below normal levels” and the “fraction of surviving cells” value (N2A cells; 100 μM 2 hours before irradiation) was “increased the fraction of surviving cells”. For the same compound, the “dose enhancement factor (DEF) at 20% surviving fraction” value (N2A cells; 100 μM 2 hours, 0-6 Gy 230 MeV proton, one set of clonogenics) was 0.91 and the percent viability (HUVEC cells [3]) was “did not result in a significant decrease in viability”.
